We go through 58 compounds from patent US11179412B2, “Methods of treating conditions involving elevated inflammatory response” (University of Pittsburgh—Of the Commonwealth System of …, priority 2017, dated 2021).

Structures are written as SMILES. Structures can show the parent of a compound that is named as a salt.

The subject of this assay is STING activation (IFNβ release) in iBMDMs. Put plainly: IFNβ release ELISA after STING ligand (or LPS) stimulation, iBMDMs. Format: cell-based, mouse. From the text: Commercially available enzyme-linked immunosorbent assay (ELISA) kits were used to measure the concentrations of mouse IFNβ (Thermo Fisher Scientific) or human IFNβ (Thermo Fisher Scientific) in culture medium according to the manufacturer's instructions. […]
On the technique in general: In an ELISA, binding on a coated surface is turned into a signal by an enzyme label.

The mark [1] stands for this setting: iBMDMs, 3′3′-cGAMP 10 μg/ml, 16 hours, compound 10 μM.

`OC[C@H]1O[C@@H](c2ccc(Cl)c(Cc3ccc(O[C@H]4CCOC4)cc3)c2)[C@H](O)[C@@H](O)[C@@H]1O` [Empagliflozin (BI 10773), Empagliflozin]: the “fold increase in IFN-β release” value under setting [1] came out at 0.57 fold.
In the case of `C[C@H](N[C@@H](CCc1ccccc1)C(=O)O)C(=O)N1CCC[C@H]1C(=O)O.O.O` [Enalaprilat Dihydrate], the “fold increase in IFN-β release” value under setting [1] came to 2.71 fold.
Still for that read-out and setting: the figure for `CCN(CC)C(=O)/C(C#N)=C/c1cc(O)c(O)c([N+](=O)[O-])c1` [Entacapone] is 0.76 fold; for `CNC(=O)c1ccc(N2C(=S)N(c3ccc(C#N)c(C(F)(F)F)c3)C(=O)C2(C)C)cc1F` [Enzalutamide (MDV3100), Enzalutamide] it is 0.50 fold.
Still for that read-out and setting: the figure for `Cn1cc(C2=C(c3cn(C4CCN(Cc5ccccn5)CC4)c4ccccc34)C(=O)NC2=O)c2ccccc21` [Enzastaurin (LY317615), Enzastaurin] is 1.02 fold; for `CCOc1ccccc1-n1c(C(C)N2CCN(C(=O)COc3ccc(Cl)cc3)CC2)nc2ccccc2c1=O` (stereo not shown) [Erastin] it is 4.52 fold.
Take `COc1ccc2nc([S@@+]([O-])Cc3ncc(C)c(OC)c3C)[nH]c2c1` [Esomeprazole Sodium]: the “fold increase in IFN-β release” value under setting [1] stood at 0.95 fold.
As to `CCc1cccc2c3c([nH]c12)C(CC)(CC(=O)O)OCC3` (stereo not shown) [Etodolac], the “fold increase in IFN-β release” value under setting [1] is 0.35 fold.
On to `CCOC(=O)c1cncn1[C@H](C)c1ccccc1` [Etomidate], for which, under setting [1], the “fold increase in IFN-β release” value was determined as 0.86 fold.
As to `CO[C@H]1C[C@@H]2CC[C@@H](C)[C@@](O)(O2)C(=O)C(=O)N2CCCC[C@H]2C(=O)O[C@H]([C@H](C)C[C@@H]2CC[C@@H](OCCO)[C@H](OC)C2)CC(=O)[C@H](C)/C=C(\C)[C@@H](O)[C@@H](OC)C(=O)[C@H](C)C[C@H](C)/C=C/C=C/C=C/1C` [Everolimus (RAD001), Everolimus], under setting [1], the “fold increase in IFN-β release” value is recorded as 1.01 fold.
As for `C=C1C[C@@H]2[C@H](CC[C@]3(C)C(=O)CC[C@@H]23)[C@@]2(C)C=CC(=O)C=C12` [Exemestane], the “fold increase in IFN-β release” value (16 h, 10 µM) was 1.11 fold.
Regarding `Cc1nc(C(=O)NCC(=O)O)c(O)c2ccc(Oc3ccccc3)cc12` [FG-4592], under setting [1], the “fold increase in IFN-β release” value came out at 0.73 fold.
On to `CC1=C(C(=O)OC2CCCCC2)C(c2ccc([N+](=O)[O-])cc2)C2=C(CC(C)(C)CC2=O)N1` (stereo not shown) [FLI-06], for which the “fold increase in IFN-β release” value under setting [1] was 2.06 fold.
As for `CCOC(=O)C1=C(C)NC(C)=C(C(=O)OC)C1c1cccc(Cl)c1Cl` (stereo not shown) [Felodipine], the “fold increase in IFN-β release” value under setting [1] is given as 0.69 fold.
Turning to `CCOC(=O)c1ccc(NC2CCCCC2)c(N)c1` [Ferrostatin-1 (Fer-1), Ferrostatin-1], the “fold increase in IFN-β release” value under setting [1] is given as 2.54 fold.
With `O=C(Nc1nc2cccc(-c3ccc(CN4CCS(=O)(=O)CC4)cc3)n2n1)C1CC1` [Filgotinib (GLPG0634), Filgotinib], the “fold increase in IFN-β release” value under setting [1] stood at 2.35 fold.
Turning to `CC(C)(C)NC(=O)[C@H]1CC[C@H]2[C@@H]3CC[C@H]4NC(=O)C=C[C@]4(C)[C@H]3CC[C@]12C` [Finasteride], the “fold increase in IFN-β release” value under setting [1] turned out to be 0.85 fold.
`CCCCCCCCc1ccc(CCC(N)(CO)CO)cc1` [Fingolimod (FTY720) HCl, Fingolimod]: for the setting “16 h, 10 µM”, the “fold increase in IFN-β release” value came to 0.77 fold.
`CC(C)n1c(/C=C/C(O)CC(O)CC(=O)O)c(-c2ccc(F)cc2)c2ccccc21` (stereo not shown) [Fluvastatin Sodium]: the “fold increase in IFN-β release” value under setting [1] is 0.32 fold.
For `COCCCC/C(=N\OCCN)c1ccc(C(F)(F)F)cc1` [Fluvoxamine maleate], the “fold increase in IFN-β release” value under setting [1] stood at 1.80 fold.
For the compound `COc1ccc(C[C@@H](C)NC[C@H](O)c2ccc(O)c(NC=O)c2)cc1.COc1ccc(C[C@@H](C)NC[C@H](O)c2ccc(O)c(NC=O)c2)cc1.O=C(O)/C=C/C(=O)O` [Formoterol Hemifumarate], under setting [1], the “fold increase in IFN-β release” value stood at 1.76 fold.
On the same count and under the same terms, to `C=C[C@@]1(C)CC(=O)[C@]2(O)[C@@]3(C)[C@@H](O)CCC(C)(C)[C@@H]3[C@H](O)[C@H](OC(C)=O)[C@@]2(C)O1` [Forskolin] belongs 0.81 fold.
With `COc1cc(Nc2ncc(F)c(Nc3ccc4c(n3)N(COP(=O)(O)O)C(=O)C(C)(C)O4)n2)cc(OC)c1OC` [Fostamatinib (R788), Fostamatinib], under setting [1], the “fold increase in IFN-β release” value was found to be 0.69 fold.
In the case of `C[C@]12CC[C@@H]3c4ccc(O)cc4C[C@@H](CCCCCCCCC[S+]([O-])CCCC(F)(F)C(F)(F)F)[C@H]3[C@@H]1CC[C@@H]2O` (stereo partly shown) [Fulvestrant], the “fold increase in IFN-β release” value under setting [1] amounted to 0.52 fold.
As for `CN[C@@H](C)C(=O)N[C@H](C(=O)N1CCC[C@H]1C(=O)Nc1snnc1-c1ccccc1)C1CCCCC1` [GDC-0152], the “fold increase in IFN-β release” value under setting [1] is listed as 1.79 fold.
As to `CS(=O)(=O)N1CCN(Cc2cc3nc(-c4cccc5[nH]ncc45)nc(N4CCOCC4)c3s2)CC1` [GDC-0941], the “fold increase in IFN-β release” value under setting [1] is 2.13 fold.
Take `CNc1nc(Nc2cn(C(C)(C)C#N)nc2C)ncc1C(F)(F)F` [GNE-0877]: the “fold increase in IFN-β release” value under setting [1] is 1.32 fold.
Take `CCNc1nc(Nc2cc(F)c(C(=O)N3CCOCC3)cc2OC)ncc1C(F)(F)F` [GNE-7915]: the “fold increase in IFN-β release” value under setting [1] was 2.41 fold.
On the same count and under the same terms, the figure for `CNc1nc(Nc2cnn([C@H]3CCN(C4COC4)C[C@@H]3F)c2Cl)ncc1C(F)(F)F` [GNE-9605] is 1.10 fold.
As for `NC(=O)c1cccc(-c2cc(Nc3ccc(OC(F)(F)F)cc3)ncn2)c1` [GNF-2], the “fold increase in IFN-β release” value under setting [1] is 0.56 fold.
Still for that read-out and setting: the figure for `O=C(NCCO)c1cccc(-c2cc(Nc3ccc(OC(F)(F)F)cc3)ncn2)c1` [GNF-5] is 2.94 fold; for `CC1=C(C(=O)Nc2cc3cn[nH]c3cc2F)C(c2ccc(C(F)(F)F)cc2)CC(=O)N1` (stereo not shown) [GSK429286A] it is 2.79 fold; for `C[C@@H](Oc1cc(-n2cnc3ccc(CN4CCN(C)CC4)cc32)sc1C(N)=O)c1ccccc1C(F)(F)F` [GSK461364] it is 0.21 fold.
On to `CCn1c(-c2nonc2N)nc2c(C#CC(C)(C)O)ncc(OC[C@H]3CCCNC3)c21` [GSK690693], for which, under setting [1], the “fold increase in IFN-β release” value was determined as 1.12 fold.
As to `CC(C)c1noc(N2CCC(COc3ccc(-c4ccc(S(C)(=O)=O)cc4)nc3)CC2)n1` [GSK1292263], under setting [1], the “fold increase in IFN-β release” value stood at 2.58 fold.
On to `CCc1cc(Nc2nccc(-c3c(-c4ccc(OC)c(C(=O)Nc5c(F)cccc5F)c4)nc4ccccn34)n2)c(OC)cc1N1CCC(N2CCN(S(C)(=O)=O)CC2)CC1` [GSK1904529A], for which, under setting [1], the “fold increase in IFN-β release” value is on record as 1.05 fold.
As for `Cn1cc(-c2ccc3c(c2)CCN3C(=O)Cc2cccc(C(F)(F)F)c2)c2c(N)ncnc21` [GSK2606414], the “fold increase in IFN-β release” value under setting [1] is 1.40 fold.
The same measure, in the same setting: to `Cc1cccc(CC(=O)N2CCc3c2ccc(-c2cn(C)c4ncnc(N)c24)c3F)n1` [GSK2656157] belongs 1.58 fold; to `CCOC(=O)CCNc1cc(N2CCc3ccccc3CC2)nc(-c2ccccn2)n1.Cl` [GSK J4 HCl], 0.40 fold.
For the compound `Cc1cc(SCc2sc(-c3ccc(C(F)(F)F)c(F)c3)nc2C)ccc1OCC(=O)O` [GW0742], the “fold increase in IFN-β release” value under setting [1] worked out at 0.13 fold.
Consider `COc1ccc(COc2ccc(Cc3cnc(N)nc3N)cc2OC)cc1` [GW2580], for which, under setting [1], the “fold increase in IFN-β release” value was found to be 1.21 fold.
The same measure, in the same setting: to `Cl.O=C(O)Cc1cccc(OCCCN(Cc2cccc(C(F)(F)F)c2Cl)CC(c2ccccc2)c2ccccc2)c1` [GW3965 HCl] belongs 0.74 fold; to `CC(C)c1onc(-c2c(Cl)cccc2Cl)c1COc1ccc(/C=C/c2cccc(C(=O)O)c2)c(Cl)c1` [GW4064], 1.26 fold.
Take `O=C(O)CCc1ccc(NCc2cccc(Oc3ccccc3)c2)cc1` [GW9508]: the “fold increase in IFN-β release” value under setting [1] is 0.80 fold.
For the compound `O=C(Nc1ccccc1)c1cc([N+](=O)[O-])ccc1Cl` [GW9662], the “fold increase in IFN-β release” value under setting [1] is given as 2.50 fold.
For the compound `CC(C)c1cc(-c2n[nH]c(=O)n2-c2ccc3c(ccn3C)c2)c(O)cc1O` [Ganetespib (STA-9090), Ganetespib], under setting [1], the “fold increase in IFN-β release” value came to 1.80 fold.
For `C[C@@H]1C(=O)O[C@H]2C[C@@]34[C@H]5C[C@@H](C(C)(C)C)[C@]36[C@@H](OC(=O)[C@@H]6O)O[C@@]4(C(=O)O5)[C@]21O` [Ginkgolide A], the “fold increase in IFN-β release” value under setting [1] was 2.14 fold.
In the case of `CC1C(=O)OC2C(O)C34C5CC(C(C)(C)C)C36C(OC(=O)C6O)OC4(C(=O)O5)C12O` (stereo not shown) [Ginkgolide B], under setting [1], the “fold increase in IFN-β release” value was 1.44 fold.
Turning to `Cc1ccc(S(=O)(=O)NC(=O)NN2CC3CCCC3C2)cc1` (stereo not shown) [Gliclazide], under setting [1], the “fold increase in IFN-β release” value was 1.93 fold.
Regarding `COc1ccc2c(c1)C(=O)N(CCc1ccc(S(=O)(=O)NC(=O)NC3CCCCC3)cc1)C(=O)C2(C)C` [Gliquidone], the “fold increase in IFN-β release” value under setting [1] is on record as 1.20 fold.
As to `COc1ccc2c(c1)c(C1=C(c3c[nH]c4ccccc34)C(=O)NC1=O)cn2CCCN(C)C` [Go 6983], the “fold increase in IFN-β release” value under setting [1] is 0.26 fold.
Still for that read-out and setting: the figure for `Fc1cc(F)c2c(c1)C1C=CCC1C(c1cccnc1)N2` (stereo not shown) [Golgicide A] is 4.19 fold; for `Cl.Cl.O=S(=O)(NCCNC/C=C/c1ccc(Br)cc1)c1cccc2cnccc12` [H 89 2HCl] it is 1.91 fold; for `CCOC(=O)C1=C(N)Oc2ccc(Br)cc2C1C(C#N)C(=O)OCC` (stereo not shown) [HA14-1] it is 0.45 fold.
Turning to `CC(C)c1ccc(NC(=O)Cn2cnc3c2c(=O)n(C)c(=O)n3C)cc1` [HC-030031], the “fold increase in IFN-β release” value under setting [1] amounted to 1.05 fold.
On the same count and under the same terms, to `Cc1cc(C)c(S(=O)(=O)n2cc(C)cc2C)c(C)c1` [HJC0350] belongs 1.05 fold; to `COc1cc2c(cc1-c1c(C)noc1C)ncc1[nH]c(=O)n([C@H](C)c3ccccn3)c12` [I-BET151 (GSK1210151A)], 0.40 fold.
For the compound `O=C1[C@H](Cc2ccc(O)cc2)N2C(=O)CCN(C(=O)NCc3ccccc3)[C@H]2CN1Cc1cccc2ccccc12` [ICG-001], the “fold increase in IFN-β release” value under setting [1] is on record as 0.10 fold.
